From paper PMC4428838, “Optimization of Invasion-Specific Effects of Betulin Derivatives on Prostate Cancer Cells through Lead Development” (PLoS ONE, 2015)

How the values were obtained:
Format in all cases: cell-based
[1] = test system: PC-3, LNCaP, LAPC-4, Ep156T; assay: Primary and secondary 3D screens combined across the cell line panel; conditions: cell lines other than PC-3, 3D, 300 nM or lower (except compound 15)
Method: Fig 5 Secondary 3D screens. Experimental betulin derivatives and control compounds were tested across a panel of prostate cancer lines (LNCaP, LAPC-4) and non-transformed, prostate epithelial cells (EP156T) in 3D culture. A) The dendrogram is based on three main morphological parameters and combines all data from primary and secondary 3D screens. Effective compound treatments are indicated in red and yellow, yellow being the most invasion-specific. B) Boxplots showing the impact of selected compounds on spheroid size (Area). Data scaling: as described in Fig 4 C) Effects of all betulin derivatives and control compounds on cell death (number of dead cells).
In order to assist functional categorization of our betulin derivatives, we combined all data into a single dendrogram, shown in Fig 5A. In addition, multiparametric representation of all experimental data as a single heatmap is highly informative (S5 Fig) and a potent way to illustrate the effects of compounds on growth, structural complexity and cell death across multiple cell lines. […] However, at lower concentrations, these compounds may act as potent and specific inhibitors of cell invasion and motility.
Supplementary file pone.0126111.s005.eps: S5 Fig Primary and secondary screens. […] The main read-outs (Area = Size, Complexity = Invasiveness, Red = Cell death) are shown in their own columns. Data scaling: DMSO control has been given a value 0 whereas paclitaxel control is valued -100 or 100 depending on the read-out. Color key is located in the upper right corner. (EPS) Click here for additional data file.
Supplementary file pone.0126111.s006.tif: S6 Fig Confocal images from primary and secondary betulin screens. Viable cells have been stained with calcein AM (green) and dead cells with ethidium homodimer-2 (red) (5× objective, maximum intensity projections, scale bar = 100 μm). (TIF) Click here for additional data file.

PC-3 cells = assay: Primary 3D screen in Matrigel ECM, morphometric image analysis (AMIDA) of invasion, growth and cell death; conditions: for concentration suppressing the invasive transformation (roundness %): PC-3 spheroids, over 6 days; for anti-invasive effects in 3D culture (in words): 0.03-1 μM
Method: Three standard of care compounds widely used against PrCa were added as controls; namely, the androgen receptor antagonist enzalutamide (MDV3100), the C17α-hydroxylase/C17,20-lyase inhibitor abiraterone (Zytiga), and the classic mitotic inhibitor paclitaxel. Treatments started at day 4, when well-differentiated round acini were established.
The live 3D cell cultures were then stained with reactive dyes Calcein AM to detect living, and ethidium homodimer to detect dead cells. Images (Fig 4A) were acquired with confocal microscope and image data were analyzed with the AMIDA software. The principles of morphometric image analysis are briefly outlined in S2 Fig.
Fig 4 Primary 3D screen. PC-3 cells were cultured in 3D Matrigel ECM for 4 days and treated for 6 days with 25 betulin derivatives (from 2D high throughput screens), DMSO/vehicle control, and three reference compounds. A) Representative maximum intensity projections of confocal microscope stack images for selected compound treatments at 300 nM concentration (5× objective, scale 100 μm). B) Three graphs showing the relative impact on three morphometric parameters for 7 betulin derivatives, DMSO control, and one control compound (paclitaxel). […] C) Hierarchical clustering was done using three morphological parameters derived from PC3 organoids: spheroid size (area), complexity and the number of dead cells. D) Wound healing curves of the two betulin derivatives 4 and 20, highlighting the 50% cut-off level (orange dashed line).
Next, statistical analyses were performed to interpret the complex image data (Fig 4B and 4C). For simplicity, we focused on only three, basic morphologic parameters from the multiparametric AMIDA readout (Fig 4B): 1) Area (indicating growth of organoids), 2) structural Complexity (as a measure of the intensity of invasion), and 3) Relative Area of dead cells within organoids (red signal as a measure of cytoxicity or apoptosis). Area (Size of organoids; Fig 4B, upper panel) was measured as the number of pixels within a segmented structure. […] Shape Complexity (Fig 4B, middle panel) was obtained using the structure size (area) and perimeter (number of border pixels). The more regular the shape of an organoid, the closer it is to a perfect circle, thus minimizing the perimeter relative to object size. […] Deviations from this average (residuals) were interpreted as a measure for the shape complexity of organoids. As a logical lower limit for this measure (represented by a perfect circle), we adjusted the intercept (height level) of the regression line to render all returned residuals as positive numbers.
All 3D cultures were done in growth factor-free Matrigel Basement-membrane Matrix (Corning Inc., New York, NY, USA) using 96-well Angiogenesis μ-plates (ibidi GmbH, Munich, Germany) as described before.[38] “Sandwich” assays in short: bottom wells of cooled Angiogenesis plates were filled with 10 μL 4 mg/mL Matrigel, centrifuged for 20 min 200 g and incubated at 37°C temperature for approximately 30–60 min or until the ECM had polymerized. 1,000–1,500 cells were mixed in 2 mg/mL ECM-medium, and 20 μL of cell suspension was added in each well. The plates were centrifuged for 10 min at 100 g, or until the cells had settled on top of the lower ECM. Finally, the outer wells and side reservoirs were filled with water for humidification, and the culture plates placed into the incubator for 3–4 h or overnight. The following day, 60 μL of cell culture medium were added; refreshed every third day by carefully aspirating the medium.

[2] = test system: actin cytoskeleton of PC-3, LNCaP and Ep156T spheroids; assay: F-actin cytoskeleton (phalloidin staining) in 3D spheroids; conditions: after 48 hours of exposure; seen in Ep156T acini and PC-3 spheroids, not LNCaP
Description: […] […] For phenotypic comparisons, we tested a panel of reference compounds targeting Akt, Rac, ROCK, Src, and other pathways, broadly linked to the actin cytoskeleton.
Fig 8 3D morphologies of prostate spheroids, exposed to selected betulin derivatives and captured with a confocal microscope. Actin cytoskeleton (filamentous or F-actin) is stained green (phalloidin), nuclei with a red dye (confocal microscope images, 40× objective, scale bar shown for each panel on the right lower corner).

[3] = PC-3 in 3D Matrigel, 6 days treatment

SMILES: CC(C)[C@@H]1CC[C@]2(C(=O)O)CC[C@]3(C)C(CCC4[C@@]5(C)Cc6cnoc6C(C)(C)C5CC[C@]43C)C12 (some centres unmarked) [Compound 4]
- effects on the other cell lines at anti-invasive concentrations [1]: no noticeable effects on the other cell lines

SMILES: C=C(C)[C@@H]1CC[C@]2(C(=O)O)CC[C@]3(C)C(CCC4[C@@]5(C)Cc6cnoc6C(C)(C)C5CC[C@]43C)C12 (some centres unmarked) [Compound 5]
- concentration at which anti-invasive effects are seen in 3D (PC-3 cells; [3]): 300 nM
- concentration suppressing the invasive transformation (roundness %) (PC-3 cells): over 300 nM
- organization of actin cytoskeleton in 3D spheroids [2]: effectively disrupted the organization of actin cytoskeleton

SMILES: C=C(C)[C@@H]1CC[C@]2(C(=O)O)CC[C@]3(C)C(CCC4[C@@]5(C)Cc6c[nH]nc6C(C)(C)C5CC[C@]43C)C12 (some centres unmarked) [Compound 6]
- anti-invasive effects in 3D culture (in words) (PC-3 cells; [3]): even more potent and proved to be specifically anti-invasive
- effects on the other cell lines at anti-invasive concentrations [1]: no noticeable effects on the other cell lines
- organization of actin cytoskeleton in 3D spheroids [2]: effectively disrupted the organization of actin cytoskeleton

SMILES: C=C(C)[C@@H]1CC[C@]2(C(=O)O)CC[C@]3(C)C(CCC4[C@@]5(C)Cc6cccnc6C(C)(C)C5CC[C@]43C)C12 (some centres unmarked) [Compound 19]
- anti-invasive effects in 3D culture (in words) (PC-3 cells; [3]): potently anti-invasive at significantly lower concentrations
- effects on the other cell lines at anti-invasive concentrations [1]: no noticeable effects on the other cell lines

SMILES: C=C(C)[C@@H]1CC[C@]2(C(=O)O)CC[C@]3(C)C(CCC4[C@@]5(C)Cc6ncccc6C(C)(C)C5CC[C@]43C)C12 (some centres unmarked) [Compound 20]
- anti-invasive effects in 3D culture (in words) (PC-3 cells; [3]): potently anti-invasive at significantly lower concentrations
- concentration suppressing the invasive transformation (roundness %) (PC-3 cells): over 300 nM
- effects on the other cell lines at anti-invasive concentrations [1]: no noticeable effects on the other cell lines
- organization of actin cytoskeleton in 3D spheroids [2]: effectively disrupted the organization of actin cytoskeleton

SMILES: CC(=O)O[C@H]1C(=O)[C@@]2(C)[C@H]([C@H](OC(=O)c3ccccc3)[C@]3(O)C[C@H](OC(=O)[C@H](O)[C@@H](NC(=O)c4ccccc4)c4ccccc4)C(C)=C1C3(C)C)[C@]1(OC(C)=O)CO[C@@H]1C[C@@H]2O [Paclitaxel, paclitaxel, reference compound]
- effect on morphometric measures (area, complexity, dead cells) (PC-3 cells; PC-3 in 3D Matrigel, paclitaxel at 30 and 100 nM): strong effect on all morphometric measures
